Laboratory results reported in patent publication US8242150B2, “Triazole derivatives for treating alzheimer'S disease and related conditions” (Merck Sharp & Dohme Corp., priority 2007, dated 2012).
Values joined by “and” are separate entries in the source; they are usually repeats but may differ in a detail not shown here. Equal entries are not always repeated. Structures can show the parent of a compound that is named as a salt.

The compounds below were run on Aβ(1-42) (assay: Cell-based γ-secretase assay, Aβ(42) detection). Conditions: Homo sapiens, SH-SY5Y, SH-SY5Y cells overexpressing SPA4CT; two values in a cell = individual enantiomers; read-out: Aβ42 IC50.
Design: species or system Human
Procedure: Cell-Based γ-Secretase Assay
Human SH-SY5Y neuroblastoma cells overexpressing the direct γ-secretase substrate SPA4CT were induced with sodium butyrate (10 mM) for 4 hours prior to plating. Cells were plated at 35,000 cells/well/100 μl in 96-well plates in phenol red-free MEM/10% FBS, 50 mM HEPES, 1% Glutamine and incubated for 2 hrs at 37° C., 5% CO2.
Compounds for testing were diluted into Me2SO to give a ten point dose-response curve. Typically 10 μl of these diluted compounds in Me2SO were further diluted into 182 μl dilution buffer (phenol red-free MEM/10% FBS, 50 mM HEPES, 1% Glutamine) and 10 μl of each dilution was added to the cells in 96-well plates (yielding a final Me2SO concentration of 0.5%). Appropriate vehicle and inhibitor controls were used to determine the window of the assay.
After incubation overnight at 37° C., 5% CO2, 25 μl and 50 μl media were transferred into a standard Meso avidin-coated 96-well plate for detection of Aβ(40) and Aβ(42) peptides, respectively. 25 μl Meso Assay buffer (PBS, 2% BSA, 0.2% Tween-20) was added to the Aβ(40) wells followed by the addition of 25 μl of the respective antibody premixes to the wells:
Aβ(42) premix: 1 μg/ml ruthenylated G2-11 antibody, 4 μg/ml; and biotinylated 4G8 antibody diluted in Origen buffer
(Biotinylated 4G8 antibody supplied by Signet Pathology Ltd; G2-10 and G2-11 antibodies supplied by Chemicon)
After overnight incubation of the assay plates on a shaker at 4° C., the Meso Scale Sector 6000 Imager was calibrated according to the manufacturer's instructions. After washing the plates 3 times with 150 μl of PBS per well, 150 μl Meso Scale Discovery read buffer was added to each well and the plates were read on the Sector 6000 Imager according to the manufacturer's instructions.
LD50 and IC50 values for inhibition of Aβ(40) and Aβ(42) were calculated by nonlinear regression fit analysis using the appropriate software (eg. Excel fit). The total signal and the background were defined by the corresponding Me2SO and inhibitor controls.

IC50	SMILES
0.616 µM	COc1cc(-c2cn(CC(=O)N(c3ccccc3)C3CCCCC3)nn2)ccc1-n1cnc(C)c1 [Example 1, N-cyclohexyl-2-{4-[3-methoxy-4-(4-methyl-imidazol-1-yl)-phenyl]-1,2,3-triazol-1-yl}-N-phenyl-acetamide]
0.529 µM	COc1cc(-c2cn(CSc3ccccc3)nn2)ccc1-n1cnc(C)c1 [Example 4, 4-[3-Methoxy-4-(4-methyl-imidazol-1-yl)-phenyl]-1-phenylsulfanylmethyl-1H-[1,2,3]triazole trifluoroacetate salt]
2.66 µM	COc1cc(-c2cn(C(C)c3ccccc3)nn2)ccc1-n1cnc(C)c1 (stereo not shown) [Example 5, 4-[3-Methoxy-4-(4-methyl-imidazol-1-yl)-phenyl]-1-(1-phenyl-ethyl)-1H-[1,2,3]triazole trifluoroacetate salt]
2.25 µM	COc1cc(-c2cn(C(F)(F)c3ccc(C(F)F)cc3)nn2)ccc1-n1cnc(C)c1 [Example 7, 1-[(4-Difluoromethyl-phenyl)-difluoro-methyl]-4-[3-methoxy-4-(4-methyl-imidazol-1-yl)-phenyl]-1H-[1,2,3]triazole trifluoracetate salt]
1.07 µM	COc1cc(-c2cn(CC(=O)N3CCCC4CCCCC43)nn2)ccc1-n1cnc(C)c1 (stereo not shown) [Example 8, 2-{4-[3-Methoxy-4-(4-methyl-imidazol-1-yl)-phenyl]-[1,2,3]triazol-1-yl}-1-(octahydro-quinolin-1-yl)-ethanone trifluoroacetate salt]
0.933 µM	COc1cc(-c2cn(C(F)(F)C(=O)NCc3ccc(F)cc3)nn2)ccc1-n1cnc(C)c1 [Example 9, 2,2-Difluoro-N-(4-fluoro-benzyl)-2-{4-[3-methoxy-4-(4-methyl-imidazol-1-yl)-phenyl]-[1,2,3]triazol-1-yl}-acetamide trifluoroacetate salt]
0.084 µM	COc1cc(-c2cn(CC(=O)N(CC(F)(F)F)c3ccc(F)c(Cl)c3)nn2)ccc1-n1cnc(C)c1 [Example 12, N-(3-chloro-4-fluorophenyl)-2-{4-[3-methoxy-4-(4-methyl-1H-imidazol-1-yl)phenyl]-1H-1,2,3-triazol-1-yl}-N-(2,2,2-trifluoroethyl)acetamide trifluoroacetate salt]

Same assay, conditions: Homo sapiens, SH-SY5Y, read-out: Aβ42 IC50

SMILES	IC50
COc1cc(-c2cn(Cc3ccc(C(C)(C)C)cc3)nn2)ccc1-n1cnc(C)c1 [Example 3, 1-(4-tert-butyl-benzyl)-4-[3-methoxy-4-(4-methyl-imidazole-1-yl)-phenyl]-1H-[1,2,3]triazole trifluoroacetate salt]	0.31 µM
COc1cc(-c2cn(Cc3ccc(-c4nc5ccccc5o4)cc3)nn2)ccc1-n1cnc(C)c1 [Example 6, 2-(4-{4-[3-Methoxy-4-(4-methyl-imidazol-1-yl)-phenyl]-[1,2,3]triazol-1-ylmethyl}-phenyl)-benzooxazole trifluoroacetate salt]	0.177 µM

Same assay, conditions: SH-SY5Y cells overexpressing SPA4CT; two values in a cell = individual enantiomers; read-out: Aβ42 IC50

IC50	SMILES
0.386 µM and 1.33 µM	COc1cc(-c2cn(C3CCc4ccccc4NC3=O)nn2)ccc1-n1cnc(C)c1 (racemic) [Example 2, (R) and (S)-3-{4-[3-methoxy-4-(4-methyl-imidazol-1-yl)-phenyl]-1,2,3-triazol-1-yl}-1,3,4,5-tetrahydro-1-benzazepin-2-one]
